Legend:
NK cells [1] = assay: Antibody-dependent NK cell cytokine (IFN-γ) secretion, ELISA; assay type: cell-based, human; details: 1 μM, HER18 target cells
Procedure: Cytokine secretion was determined as follows. […] NK cells from healthy donors were enriched as described above and then added to the target cells and incubated for 4 hours at 37° C. Triplicate cultures were performed on NK cells from donors. After incubation, supernatants were harvested, centrifuged briefly, and then analyzed for interferon-γ using an enzyme-linked immunosorbent assay (ELISA) (R&D Systems, Minneapolis, Minn., USA).

[2] = Glutathione binding and depletion in vitro; assay type: in vitro ADME
[3] = system: spontaneous pancreatic tumors (KPC mice); assay: KPC mouse model of advanced pancreatic cancer; assay type: in vivo; details: for Tumor volume, average: N=6
Procedure: The KPC mouse model recapitulates many of the molecular, histopathologic, and clinical features of human disease (Westphalen and Olive, Cancer J. 2012, 18, 502-510). Combination therapy with gemcitabine was also evaluated in this model. Mice were enrolled after identification of spontaneously appearing tumors in the pancreas that were >100 mm^3 (as assessed by high-resolution ultrasonography).

ID8 ovarian cancer [4] = assay: ID8 syngeneic orthotropic ovarian cancer model; assay type: in vivo, mice
Source text: FIG. 108 illustrates the effects of vehicle on flux at two timepoints, as a control for comparison with FIG. 109, in the ID8 syngeneic orthotropic ovarian cancer model.

[5] = Study of respiratory function; details: rats, doses through 300 mg/kg
[6] = system: KPC derived mouse pancreatic cancer cells; assay: KPC derived pancreatic cancer cells injected into the pancreas, Formula (XVIII) and/or gemcitabine; assay type: in vivo; details: 15 mg/kg/BID orally
Procedure: In this study, KPC derived mouse pancreatic cancer cells (KrasG12D; Trp53R172H; Pdxl-Cre) were injected into the pancreases.
Single cell suspensions from tumor samples. Mouse tumor tissue was collected and stored in PBS/0.1% soybean trypsin inhibitor prior to enzymatic dissociation. Samples were finely minced with a scissors and mouse tissue was transferred into DMEM containing 1.0 mg/ml collagenase IV (Gibco), 0.1% soybean trypsin inhibitor, and 50 U/ml DNase (Roche) and incubated at 37° C. for 30 minutes with constant stirring while human tissue was digested in 2.0 mg/ml collagenase IV, 1.0 mg/ml hyluronidase, 0.1% soybean trypsin inhibitor, and 50 U/ml DNase for 45 minutes. Suspensions were filtered through a 100 micron filter and washed with FACS buffer (PBS/0.5% BSA/2.0 mM EDTA) prior to staining. Two million total cells were stained with antibodies as indicated. Intracellular detection of FoxP3 was achieved following permeabilization with BD Perm Buffer III (BD Biosciences) and eBioscience Fix/Perm respectively. Following surface staining, samples were acquired on a BD Fortessa and analyzed using FlowJo (Treestar) software.

[7] = In vitro metabolism in hepatocytes with 14C-labeled compound; assay type: in vitro ADME, mouse, rat, dog, rabbit, monkey, and human
canine B cell lymphoma = assay: Veterinary clinical trial in companion dogs with lymphoma; assay type: in vivo
Procedure: Enrollment has completed for Arm 1 and is ongoing for Arm 2.
Intra-subject dose escalation was allowed. Six of the 11 dogs that initiated at 2.5 or 5 mg/kg once daily were escalated and completed the study with dosages of 10 mg/kg twice daily. Among all the dose cohorts, 8 dogs had shrinkage of target lesions >20%; the best tumor responses were between 45-49% reduction in the sum of target lesions in two dogs.

[8] = system: NSCLC (KrasLA2) lung tumors; assay: Genetic tumor model of NSCLC (KrasLA2); assay type: in vivo, mice; details: 15 mg/kg
Source text: The model is designed to have sporadic expression in single cells of G12D mutant Kras off its own promoter triggered by spontaneous intrachromosomal recombination. Johnson, et al. Nature 2001, 410, 1111-16. While the mutant Kras protein is expressed in a few cells in all tissues, tumor development is seen only in the lung at high penetrance.

KPC pancreatic cancer = KPC pancreatic cancer model; assay type: in vivo
CYP3A4 = CYP3A4 (Homo sapiens, UniProt P08684); assay: In vitro CYP metabolism and CYP interaction studies; assay type: in vitro ADME
EGFR = EGFR (Homo sapiens, UniProt P00533); assay: EGF-induced EGFR phosphorylation in A431 cells (phosphoflow); details: 10 μM; A431 human epidermoid cancer cell line
NK cells [9] = assay: NK cell degranulation (CD107a externalization, flow cytometry); assay type: cell-based, human; details: 1 μM, HER18 target cells
Procedure: Lytic granule release was determined as follows. NK cells from healthy donors were enriched and cultured in the presence of target cells, monoclonal antibodies and test articles as described above. After 4 hours, the cultures were harvested and cells were pelleted, washed, and then stained for flow cytometry evaluation. Degranulation was evaluated via by flow cytometery by externalization of CD107a, a protein normally present on the inner leaflet of lytic granules, and gating on NK cells (CD3-CD16^+ lymphocytes). The percentage of CD107a positive NK cells was quantified by comparison with a negative control (isotype control, unstained cells/FMO). Control cultures (NK cells cultured without target cells, or NK, target cell co-cultures in the absence of appropriate monoclonal antibody) were also evaluated; all experiments were performed in triplicate.

Txk = Txk (Homo sapiens, UniProt P42681); assay: biochemical
BTK = BTK (Homo sapiens, UniProt Q06187); assay: BTK target occupancy in relapsed/refractory CLL patients; details: at lower dosage versus ibrutinib, FIG. 144
[10] = Brain PK experiments (brain and CSF versus plasma); assay type: in vivo, Sprague-Dawley rats; details: rats, 5 or 30 mg/kg/day
Source text: Two vehicle treated rats were sacrificed on each sampling day for comparison.

CLL = assay: Clinical study of Formula (XVIII) in CLL; assay type: in vivo
Source text: J. Med. 2013, 369, 32-42.

ID8 ovarian cancer [11] = assay: ID8 syngeneic orthotropic ovarian cancer murine model; assay type: in vivo, mice; details: 15 mg/kg/BID orally
Source text: Human ovarian cancer models, including the ID8 syngeneic orthotropic ovarian cancer model and other animal models, are described in Fong and Kakar, J. Ovarian Res. 2009, 2, 12; Greenaway et al., Gynecol. Oncol. 2008, 108, 385-94; Urzua et al., Tumour Biol. 2005, 26, 236-44; Janat-Amsbury et al., Anticancer Res. 2006, 26, 3223-28; Janat-Amsbury et al., Anticancer Res. 2006, 26, 2785-89. […] The results of the study are shown in FIG. 108, FIG. 109, FIG. 110, FIG. 111, FIG. 112, FIG. 113, FIG. 114, and FIG. 115.

Chain of CYP3A4 (P08684 whole entry): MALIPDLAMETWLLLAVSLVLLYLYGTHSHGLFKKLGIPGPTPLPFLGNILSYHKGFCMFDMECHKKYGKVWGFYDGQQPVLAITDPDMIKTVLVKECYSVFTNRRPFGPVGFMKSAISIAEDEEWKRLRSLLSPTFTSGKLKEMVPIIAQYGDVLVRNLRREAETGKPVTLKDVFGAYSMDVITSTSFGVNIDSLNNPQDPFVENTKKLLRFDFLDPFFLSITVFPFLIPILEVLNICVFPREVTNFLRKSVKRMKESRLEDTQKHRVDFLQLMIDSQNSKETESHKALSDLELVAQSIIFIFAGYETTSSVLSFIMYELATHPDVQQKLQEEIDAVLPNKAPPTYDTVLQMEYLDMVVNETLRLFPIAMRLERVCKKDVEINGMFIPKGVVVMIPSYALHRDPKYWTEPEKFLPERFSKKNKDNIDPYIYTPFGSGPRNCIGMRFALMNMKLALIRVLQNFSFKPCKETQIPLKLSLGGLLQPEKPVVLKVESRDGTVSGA
Chain of EGFR (P00533 25-1210): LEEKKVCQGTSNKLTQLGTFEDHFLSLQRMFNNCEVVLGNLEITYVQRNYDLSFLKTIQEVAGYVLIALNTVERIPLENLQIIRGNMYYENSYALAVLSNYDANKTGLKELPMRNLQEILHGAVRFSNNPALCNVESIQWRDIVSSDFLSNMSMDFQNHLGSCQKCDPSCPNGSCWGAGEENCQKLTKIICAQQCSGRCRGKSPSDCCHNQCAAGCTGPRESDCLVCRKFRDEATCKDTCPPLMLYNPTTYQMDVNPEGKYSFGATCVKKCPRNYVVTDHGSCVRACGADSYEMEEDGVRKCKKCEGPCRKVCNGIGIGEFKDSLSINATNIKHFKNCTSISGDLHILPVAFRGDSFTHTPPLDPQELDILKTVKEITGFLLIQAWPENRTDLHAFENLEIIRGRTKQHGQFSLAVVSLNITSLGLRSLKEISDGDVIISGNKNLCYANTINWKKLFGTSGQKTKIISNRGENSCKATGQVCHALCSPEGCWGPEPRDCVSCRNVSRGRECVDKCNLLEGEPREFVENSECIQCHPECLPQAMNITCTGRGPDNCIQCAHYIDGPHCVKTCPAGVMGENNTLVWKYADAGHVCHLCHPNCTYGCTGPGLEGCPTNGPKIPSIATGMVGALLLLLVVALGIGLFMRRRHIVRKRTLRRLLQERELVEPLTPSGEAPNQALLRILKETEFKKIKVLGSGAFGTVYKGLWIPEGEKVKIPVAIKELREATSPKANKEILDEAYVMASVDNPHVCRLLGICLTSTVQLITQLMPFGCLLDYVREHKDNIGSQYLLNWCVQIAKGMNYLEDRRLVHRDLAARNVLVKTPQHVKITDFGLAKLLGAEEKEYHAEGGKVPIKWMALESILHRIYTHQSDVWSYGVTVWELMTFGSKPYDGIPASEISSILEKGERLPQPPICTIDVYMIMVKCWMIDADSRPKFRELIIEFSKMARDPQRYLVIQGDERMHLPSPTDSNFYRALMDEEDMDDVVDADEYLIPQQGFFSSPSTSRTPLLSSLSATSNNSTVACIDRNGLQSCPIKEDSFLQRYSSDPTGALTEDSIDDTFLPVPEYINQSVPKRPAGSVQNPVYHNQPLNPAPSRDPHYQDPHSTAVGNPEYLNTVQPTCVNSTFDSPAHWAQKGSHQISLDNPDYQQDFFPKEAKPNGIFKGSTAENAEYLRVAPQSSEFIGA
Chain of Txk (P42681 whole entry): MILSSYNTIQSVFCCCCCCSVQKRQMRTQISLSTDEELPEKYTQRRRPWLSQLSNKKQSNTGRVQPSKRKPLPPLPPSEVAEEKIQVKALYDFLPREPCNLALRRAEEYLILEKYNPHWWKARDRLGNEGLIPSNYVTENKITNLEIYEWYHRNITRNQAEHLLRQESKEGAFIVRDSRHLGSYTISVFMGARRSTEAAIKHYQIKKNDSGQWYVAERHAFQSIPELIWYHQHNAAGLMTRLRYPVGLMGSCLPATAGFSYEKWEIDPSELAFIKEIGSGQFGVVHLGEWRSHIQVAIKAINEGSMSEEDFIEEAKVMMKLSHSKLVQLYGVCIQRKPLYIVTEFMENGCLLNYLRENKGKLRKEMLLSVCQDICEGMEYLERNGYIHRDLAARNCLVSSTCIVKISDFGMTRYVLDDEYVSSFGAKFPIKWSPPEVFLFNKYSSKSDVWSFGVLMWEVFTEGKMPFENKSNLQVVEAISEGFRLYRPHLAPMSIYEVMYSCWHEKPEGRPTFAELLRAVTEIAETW
Chain of BTK (Q06187 whole entry): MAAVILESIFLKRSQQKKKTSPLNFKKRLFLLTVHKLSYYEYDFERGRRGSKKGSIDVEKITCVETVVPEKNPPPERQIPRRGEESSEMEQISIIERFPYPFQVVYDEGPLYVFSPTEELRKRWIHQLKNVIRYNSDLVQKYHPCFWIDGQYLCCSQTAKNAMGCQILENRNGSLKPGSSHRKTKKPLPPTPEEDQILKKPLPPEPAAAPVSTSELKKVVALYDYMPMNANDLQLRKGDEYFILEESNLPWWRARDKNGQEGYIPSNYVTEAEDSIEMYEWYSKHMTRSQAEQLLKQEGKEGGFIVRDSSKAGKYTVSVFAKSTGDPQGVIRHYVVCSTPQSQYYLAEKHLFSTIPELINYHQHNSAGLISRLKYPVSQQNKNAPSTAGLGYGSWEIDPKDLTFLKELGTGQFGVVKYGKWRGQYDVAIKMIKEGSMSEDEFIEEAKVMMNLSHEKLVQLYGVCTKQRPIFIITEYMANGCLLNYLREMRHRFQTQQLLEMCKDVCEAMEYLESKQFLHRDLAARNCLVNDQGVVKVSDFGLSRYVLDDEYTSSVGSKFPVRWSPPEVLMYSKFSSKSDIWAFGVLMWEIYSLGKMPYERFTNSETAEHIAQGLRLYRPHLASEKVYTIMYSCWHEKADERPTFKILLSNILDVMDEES

For `CC#CC(=O)N1CCC[C@H]1c1nc(-c2ccc(C(=O)Nc3ccccn3)cc2)c2c(N)nccn12` [Formula (XVIII), (S)-4-(8-amino-3-(1-(but-2-ynoyl)pyrrolidin-2-yl)imidazo[1,5-a]pyrazin-1-yl)-N-(pyridin-2-yl)benzamide], the “Inhibition of trastuzumab-stimulated NK cell cytokine release” value (NK cells [1]) was “no inhibitory effect”, the “Glutathione binding and depletion” value [2] was “binds to glutathione but does not deplete glutathione in vitro” and the “CD8+ cells in tumor tissues” value ([3]; 15 mg/kg BID orally) was “significant increase in CD8^+ cells”. For the same compound, the “Immunosuppressive TAMs, MDSCs and Tregs in tumor tissues” value ([3]; 15 mg/kg BID orally) was “significantly reduced”, the “Pancreatic cancer growth and animal survival” value ([3]; 15 mg/kg BID orally) was “substantially slowed pancreatic cancer growth and increased animal survival” and the Survival ([3]; day 14) was 6/6. For the same compound, the Survival ([3]; day 28) was 5/6, the “Tumor volume, average” value ([3]; day 28, 15 mg/kg BID orally) was 272 mm^3 and the “Tumor volume, average” value ([3]; predose, 15 mg/kg BID orally) was 165 mm^3. For the same compound, the “immunosuppressive tumor associated Tregs” value (ID8 ovarian cancer [4]; FIG. 114) was “significant reduction”, the “CD8+ T cells” value (ID8 ovarian cancer [4]; FIG. 115) was “increase” and the “ID8 ovarian cancer growth” value (ID8 ovarian cancer [4]; syngeneic murine model, in comparison to vehicle, FIG. 111) was “impairs”. The “immunosuppressive tumor associated lymphocytes” value (ID8 ovarian cancer [4]; tumor-bearing mice, in comparison to vehicle, FIG. 110) was “significant reduction”, the “total B cells” value (ID8 ovarian cancer [4]; tumor-bearing mice, FIG. 112) was “significant reduction” and the “B regulatory cells (Bregs)” value (ID8 ovarian cancer [4]; tumor-bearing mice, FIG. 113) was “significant reduction”. The Respiratory function [5] was “no treatment-related adverse effects”, the Tumor burden [6] was “reduction in tumor burden” and the Unique human metabolite ([7]; hepatocytes) was “No unique human metabolite was identified”. For the same compound, the Metabolites in hepatocytes ([7]; mouse, rat, dog, rabbit, monkey, and human hepatocytes) was “two mono-oxidized metabolites and a glutathione conjugate”, the “CR by investigator evaluation” value (canine B cell lymphoma) was 0/21 and the Number of tumors [8] was “fewer overall tumors”. The Tumor volumes [8] was “significant decrease in tumor volumes versus vehicle”, the “immunosuppressive TAMs (CD11b+Ly6ClowF4/80+Csf1r+) in tumor tissues” value (KPC pancreatic cancer; FIG. 128) was “significantly reduced” and the “immunosuppressive MDSCs (Gr1+Ly6CHi) in tumor tissues” value (KPC pancreatic cancer; FIG. 129) was “significantly reduced”. The “immunosuppressive Tregs (CD4+CD25+FoxP3+) in tumor tissues” value (KPC pancreatic cancer; FIG. 130) was “significantly reduced”, the “CYP catalyzed loss of parent drug” value (CYP3A4; in vitro) was “metabolized by CYP3A4” and the “CYP drug-drug interaction potential” value (CYP3A4; nonclinical CYP interaction studies) was “very unlikely to cause clinical drug-drug interactions”. For the same compound, the “Inhibition of in vitro EGFR phosphorylation” value (EGFR) was “no inhibition”, the “Inhibition of trastuzumab-stimulated NK cell degranulation” value (NK cells [9]) was “no inhibitory effect” and the IC50 (Txk) was 291 nM. The BTK target occupancy (BTK) was “improved”, the “Levels in brain and CSF samples” value [10] was “low but detectable levels” and the apoptosis (CLL; CLL patients, FIG. 157) was “increased”. For the same compound, the “sum of the product of greatest diameters (SPD)” value (CLL; CLL, compared with ibrutinib, FIG. 138) was “decreases more rapidly”, the “absolute lymphocyte count (ALC)” value (CLL; CLL, relative to ibrutinib (Byrd et al. 2013), FIG. 138) was “much smaller relative increase and much faster decrease” and the CXCL12 levels (CLL; patients treated, FIG. 158) was “decrease”. For the same compound, the CCL2 levels (CLL; patients treated, FIG. 159) was “decrease”, the “CD8+ T cells” value (ID8 ovarian cancer [11]) was “increase in CD8^+ T cells” and the “ID8 ovarian cancer growth” value (ID8 ovarian cancer [11]) was “impairs ID8 ovarian cancer growth”. The “Immunosuppressive B cells” value (ID8 ovarian cancer [11]) was “significant reduction in immunosuppressive B cells”, the Immunosuppressive tumor-associated lymphocytes (ID8 ovarian cancer [11]) was “significant reduction in immunosuppressive tumor-associated lymphocytes” and the “Tumor associated Tregs” value (ID8 ovarian cancer [11]) was “significant reduction in immunosuppressive tumor associated Tregs”.

— patent US20170224819A1, “Therapeutic Combinations of a BTK Inhibitor, a PI3K Inhibitor, a JAK-2 Inhibitor, and/or a CDK 4/6 Inhibitor” (Acerta Pharma B.V., priority 2014, published 2017)
